According to patent US7709471B2, “Compounds” (AstraZeneca AB, priority 2006, dated 2010):

Columns and labels:
recombinant Plk1 = recombinant Plk1 (Homo sapiens, UniProt P53350); assay: In Vitro Plk1 Enzyme Assay (SPA, GST-Cdc25C phosphorylation); format: biochemical; conditions: ATP 64 nM, 90 minutes, read-out: IC50 (Plk1 enzyme inhibition)
[1] = system: human colon tumour cell line HT29; assay: Cellular Assay (phosphohistone H3 Ser10 mitotic marker, HT29); format: cell-based; conditions: HT-29, 24 h, HT29 cells, read-out: IC50 (cellular assay, phosphohistone H3)
Description: Chromosome condensation in mitosis is accompanied by phosphorylation of histone H3 on serine 10.
After 24 hours, cells were fixed in 3.7% (v/v) formaldehyde then permeabilised and blocked for 10 minutes in 100 μl 0.5% (v/v) Triton X-100, 1% (w/v) bovine serum albumin (BSA) in phosphate buffered saline (PBS). […] The raw assay data were analysed by non-linear regression analysis and used to determine an IC50 value for each compound.

Sequence of recombinant Plk1 (P53350 whole entry): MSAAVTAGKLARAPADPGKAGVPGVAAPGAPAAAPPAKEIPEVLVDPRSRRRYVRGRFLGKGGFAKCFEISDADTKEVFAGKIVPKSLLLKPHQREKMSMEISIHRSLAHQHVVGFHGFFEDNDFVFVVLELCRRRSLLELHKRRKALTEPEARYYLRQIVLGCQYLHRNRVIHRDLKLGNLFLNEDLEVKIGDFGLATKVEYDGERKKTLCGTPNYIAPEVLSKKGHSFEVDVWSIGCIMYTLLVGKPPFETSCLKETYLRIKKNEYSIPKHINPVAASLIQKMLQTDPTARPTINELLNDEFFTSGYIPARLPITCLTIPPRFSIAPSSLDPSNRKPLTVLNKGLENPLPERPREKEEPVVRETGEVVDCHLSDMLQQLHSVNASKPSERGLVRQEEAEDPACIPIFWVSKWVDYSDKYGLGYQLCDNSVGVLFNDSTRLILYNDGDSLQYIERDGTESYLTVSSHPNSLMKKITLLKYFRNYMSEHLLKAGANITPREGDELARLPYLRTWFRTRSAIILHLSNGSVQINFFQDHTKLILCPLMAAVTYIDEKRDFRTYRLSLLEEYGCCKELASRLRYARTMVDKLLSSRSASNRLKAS

SMILES	IC50 (recombinant Plk1) [nM]	IC50 [1] [nM]
CN1CCC(NC(=O)c2ccc(Nc3ncc4c(n3)N(C3CCCC3)CCC(=O)N4C)c(OC(F)(F)F)c2)CC1 [Example 199, 4-[(6-cyclopentyl-2-methyl-3-oxo-2,6,8,10-tetrazabicyclo[5.4.0]undeca-8,10,12-trien-9-yl)amino]-N-(1-methyl-4-piperidyl)-3-(trifluoromethoxy)benzamide]	< 100000	< 300
CN1CCC(NC(=O)c2coc(Nc3ncc4c(n3)N(C3CCCC3)CCC(=O)N4C)n2)CC1 [Example 265, 2-[(6-cyclopentyl-2-methyl-3-oxo-2,6,8,10-tetrazabicyclo[5.4.0]undeca-8,10,12-trien-9-yl)amino]-N-(1-methyl-4-piperidyl)1,3-oxazole-4-carboxamide]	< 100000	< 30000
COc1cc(C(=O)NCCCNc2ccccn2)ccc1Nc1ncc2c(n1)N(C1CCCC1)CCC(=O)N2C [Example 38, 4-[(6-cyclopentyl-2-methyl-3-oxo-2,6,8,10-tetrazabicyclo[5.4.0]undeca-8,10,12-trien-9-yl)amino]-3-methoxy-N-[3-(pyridin-2-ylamino)propyl]benzamide]	< 1000	< 300
CCN1CCC(NC(=O)c2ccc(Nc3ncc4c(n3)N(C3CCCCC3)CC3(CC3)C(=O)N4C)c(OC)c2)CC1 [Example 433, 4-(9′-cyclohexyl-5′-methyl-6′-oxo-5′,6′,8′,9′-tetrahydrospiro[cyclopropane-1,7′-pyrimido[5,4-b][1,4]diazepine]-2′-ylamino)-N-(1-ethyl-4-piperidyl)-3-methoxy-benzamide]	< 100000	< 300
CN1C(=O)CCN(C2CCCC2)c2nc(Nc3cc(F)c(C(=O)N[C@@H]4CCNC4)cc3Cl)ncc21 [Example 321, 5-chloro-4-[(2-cyclopentyl-6-methyl-5-oxo-2,6,9,11-tetrazabicyclo[5.4.0]undeca-7,9,11-trien-10-yl)amino]-2-fluoro-N-[(3R)-pyrrolidin-3-yl]benzamide]	< 300	< 300
CCN1CCCC1CNC(=O)c1ccc(Nc2ncc3c(n2)N(C2CCCC2)CCC(=O)N3C)c(OC)c1 (stereo not shown) [Example 15, 4-[(6-cyclopentyl-2-methyl-3-oxo-2,6,8,10-tetrazabicyclo[5.4.0]undeca-8,10,12-trien-9-yl)amino]-N-[(1-ethylpyrrolidin-2-yl)methyl]-3-methoxy-benzamide]	< 300	< 300
CN(C)c1ccc(Nc2ncc3c(n2)N(C2CCCC2)CCC(=O)N3C)cc1 [Example 122, 6-cyclopentyl-9-[(4-dimethylaminophenyl)amino]-2-methyl-2,6,8,10-tetrazabicyclo[5.4.0]undeca-8,10,12-trien-3-one]	< 100000	< 30000
COc1ccc(NC(C)=O)cc1Nc1ncc2c(n1)N(C1CCCC1)CCC(=O)N2C [Example 176, N-[3-[(6-cyclopentyl-2-methyl-3-oxo-2,6,8,10-tetrazabicyclo[5.4.0]undeca-8,10,12-trien-9-yl)amino]-4-methoxy-phenyl]acetamide]	< 300	< 1000
CCCN1CCC(NC(=O)c2ccc(Nc3ncc4c(n3)N(C3CCCC3)CCC(=O)N4C)c(OC)c2)CC1 [Example 314, 4-[(2-cyclopentyl-6-methyl-5-oxo-2,6,9,11-tetrazabicyclo[5.4.0]undeca-7,9,11-trien-10-yl)amino]-3-methoxy-N-(1-propyl-4-piperidyl)benzamide]	< 300	< 300
COc1cc(C(=O)NC2CCNCC2)ccc1Nc1ncc2c(n1)N(C1CCCC1)CCC(=O)N2C [Example 41, 4-[(6-cyclopentyl-2-methyl-3-oxo-2,6,8,10-tetrazabicyclo[5.4.0]undeca-8,10,12-trien-9-yl)amino]-3-methoxy-N-(4-piperidyl)benzamide]	< 300	< 300
COc1cc(N2CCCN(C)CC2)ccc1Nc1ncc2c(n1)N(C1CCCC1)CCC(=O)N2C [Example 109, 6-cyclopentyl-9-[[2-methoxy-4-(4-methyl-1,4-diazepan-1-yl)phenyl]amino]-2-methyl-2,6,8,10-tetrazabicyclo[5.4.0]undeca-8,10,12-trien-3-one]	< 1000	< 300
COc1cc(OCCN2CCOCC2)ccc1Nc1ncc2c(n1)N(C1CCCC1)CCC(=O)N2C [Example 115, 6-cyclopentyl-9-[[2-methoxy-4-(2-morpholin-4-ylethoxy)phenyl]amino]-2-methyl-2,6,8,10-tetrazabicyclo[5.4.0]undeca-8,10,12-trien-3-one]	< 1000	< 30000
COc1cc(C(=O)NC(C)CN2CCCCC2)ccc1Nc1ncc2c(n1)N(C1CCCC1)CCC(=O)N2C (stereo not shown) [Example 73, 4-[(6-cyclopentyl-2-methyl-3-oxo-2,6,8,10-tetrazabicyclo[5.4.0]undeca-8,10,12-trien-9-yl)amino]-3-methoxy-N-[1-(1-piperidyl)propan-2-yl]benzamide]	< 300	< 300
CNCCNC(=O)c1ccc(Nc2ncc3c(n2)N(C2CCCC2)CCC(=O)N3C)c(OC)c1 [Example 43, 4-[(6-cyclopentyl-2-methyl-3-oxo-2,6,8,10-tetrazabicyclo[5.4.0]undeca-8,10,12-trien-9-yl)amino]-3-methoxy-N-(2-methylaminoethyl)benzamide]	< 300	< 300
COc1cc(C(=O)NCCCCN2CCCC2)ccc1Nc1ncc2c(n1)N(C1CCCC1)CCC(=O)N2C [Example 33, 4-[(6-cyclopentyl-2-methyl-3-oxo-2,6,8,10-tetrazabicyclo[5.4.0]undeca-8,10,12-trien-9-yl)amino]-3-methoxy-N-(4-pyrrolidin-1-ylbutyl)benzamide]	< 300	< 300
COc1cc(C(=O)NCCN2CC3CCC(C2)O3)ccc1Nc1ncc2c(n1)N(C1CCCC1)CCC(=O)N2C [Example 32, 4-[(6-cyclopentyl-2-methyl-3-oxo-2,6,8,10-tetrazabicyclo[5.4.0]undeca-8,10,12-trien-9-yl)amino]-3-methoxy-N-[2-(8-oxa-3-azabicyclo[3.2.1]oct-3-yl)ethyl]benzamide]	< 1000	< 300
COc1cc(OC2CCN(C)C2)ccc1Nc1ncc2c(n1)N(C1CCCC1)CCC(=O)N2C (stereo not shown) [Example 114, 6-cyclopentyl-9-[[2-methoxy-4-(1-methylpyrrolidin-3-yl)oxy-phenyl]amino]-2-methyl-2,6,8,10-tetrazabicyclo[5.4.0]undeca-8,10,12-trien-3-one]	< 300	< 1000
COc1cc(C(=O)NC2CCN(C(=O)OC(C)(C)C)CC2)ccc1Nc1ncc2c(n1)N(C1CCCC1)CCC(=O)N2C [Example 50, tert-butyl 4-[[4-[(6-cyclopentyl-2-methyl-3-oxo-2,6,8,10-tetrazabicyclo[5.4.0]undeca-8,10,12-trien-9-yl)amino]-3-methoxy-benzoyl]amino]piperidine-1-carboxylate]	< 100000	< 300
COc1cc(C(=O)NC[C@@H]2CCNC2)ccc1Nc1ncc2c(n1)N(C1CCCC1)CCC(=O)N2C [Example 47, 4-[(6-cyclopentyl-2-methyl-3-oxo-2,6,8,10-tetrazabicyclo[5.4.0]undeca-8,10,12-trien-9-yl)amino]-3-methoxy-N-[[(3R)-pyrrolidin-3-yl]methyl]benzamide]	< 300	< 1000
COc1cc(C(=O)N[C@H]2[C@@H]3CN(C(=O)OCc4ccccc4)C[C@@H]32)ccc1Nc1ncc2c(n1)N(C1CCCC1)CCC(=O)N2C [Example 51, Benzyl(1S,5R)-6-[[4-[(6-cyclopentyl-2-methyl-3-oxo-2,6,8,10-tetrazabicyclo[5.4.0]undeca-8,10,12-trien-9-yl)amino]-3-methoxy-benzoyl]amino]-3-azabicyclo[3.1.0]hexane-3-carboxylate]	< 100000	< 1000
COc1cc(C(=O)NCC(C)(C)CN(C)C)ccc1Nc1ncc2c(n1)N(C(C)C)CCC(=O)N2C [Example 208, N-(3-dimethylamino-2,2-dimethyl-propyl)-3-methoxy-4-[(2-methyl-3-oxo-6-propan-2-yl-2,6,8,10-tetrazabicyclo[5.4.0]undeca-7,9,11-trien-9-yl)amino]benzamide]	< 300	< 300
COc1cc(C(=O)NC2CCCN(C)C2)ccc1Nc1ncc2c(n1)N(C1CCCC1)CC(C)(C)C(=O)N2C (stereo not shown) [Example 243, 4-[(2-cyclopentyl-4,4,6-trimethyl-5-oxo-2,6,9,11-tetrazabicyclo[5.4.0]undeca-7,9,11-trien-10-yl)amino]-3-methoxy-N-(1-methyl-3-piperidyl)benzamide]	< 1000	< 300
CNC(=O)c1ccc(Nc2ncc3c(n2)N(C2CCCC2)CCC(=O)N3C)cc1 [Example 102, 4-[(6-cyclopentyl-2-methyl-3-oxo-2,6,8,10-tetrazabicyclo[5.4.0]undeca-8,10,12-trien-9-yl)amino]-N-methyl-benzamide]	< 300	
CN1C(=O)CCN(C2CCCC2)c2nc(Nc3ccc(S(=O)(=O)N4CCCCC4)cc3)ncc21 [Example 134, 6-cyclopentyl-2-methyl-9-[[4-(1-piperidylsulfonyl)phenyl]amino]-2,6,8,10-tetrazabicyclo[5.4.0]undeca-8,10,12-trien-3-one]	< 100000	
COc1cc(C(=O)NC2CCN(C)CC2)ccc1Nc1ncc2c(n1)N(C1CCOCC1)CCC(=O)N2C [Example 9, 3-Methoxy-4-[[6-methyl-2-(oxan-4-yl)-5-oxo-2,6,9,11-tetrazabicyclo[5.4.0]undeca-7,9,11-trien-10-yl]amino]-N-(1-methyl-4-piperidyl)benzamide]	< 300	
CSc1cccc(Nc2ncc3c(n2)N(C2CCCC2)CCC(=O)N3C)c1 [Example 163, 6-cyclopentyl-2-methyl-9-[(3-methylsulfanylphenyl)amino]-2,6,8,10-tetrazabicyclo[5.4.0]undeca-8,10,12-trien-3-one]	< 100000	
CN1C(=O)CCN(C2CCCC2)c2nc(Nc3ccccc3S(C)(=O)=O)ncc21 [Example 149, 6-cyclopentyl-2-methyl-9-[(2-methylsulfonylphenyl)amino]-2,6,8,10-tetrazabicyclo[5.4.0]undeca-8,10,12-trien-3-one]	< 100000	
